Laboratory results as given in patent publication US20090311782A1, “METHOD FOR PROMOTING DIFFERENTIATION OF STEM CELL INTO INSULIN PRODUCING CELL” (TAIPEI VETERANS GENERAL HOSPITAL, priority 2008, published 2009).

Experiments:
Format in all cases: cell-based
[1] = tested on: IPCs derived from human MSCs; assay: Insulin release by IPCs quantified by human insulin ELISA; conditions: IBMX 100 μM, low glucose concentration (5 mM), 1 hour incubation in KRB buffer, FIG. 3B, p<0.05
Protocol: Insulin is an endocrine for reducing blood sugar, and normal islet cells are induced by glucose to release insulin. In order to quantify insulin release by IPCs, a human insulin ELISA (Enzyme-Link ImmunoSorbent Assay) is employed herein.
The suspension stage IV cells are rinsed twice in Phosphate Buffered Saline (PBS) and Krebs-Ringer bicarbonate (KRB) buffer (120 mM NaCl, 5 m M KCl, 2.5 m M CaCl2, 1.1 mM MgCl2, 25 mM NaHCO3 , 0.1 BSA) and preincubated for 1 hour with KRB buffer containing 5 mM glucose. The suspension stage IV cells are then incubated for 1 hour in fresh KRB buffer with 5 mM, 10 mM, 15 mM or 25 mM glucose, and the released insulin in the incubation medium is quantified by ELISA. The quantified insulin release results are shown in FIG. 3A, wherein undifferentiated MSCs are served as a control (*p<0.05 as compared with 5 mM; #p<0.05 as compared with 10 mM; student's t test). […] The insulin secreted by IPCs derived from human MSCs in the present invention is up to 1.1 ng/h/2.5×10^5 IPCs, which is even higher than those secreted by IPCs derived from rodent bone marrow stem cells in the prior art (referring to the citations 5-7). […]

human MSCs [2] = assay: Insulin and Glut2 gene expression in stage IV cells by real-time RT-PCR, normalized by GAPDH (FIGS. 4A, 4B); conditions: pellet suspension culture; for gene expressions of insulin and Glut2: 5 μg/mL ECM, compared with pellet culture without any ECM
Protocol: In order to further compare the different differentiation effects resulting from different ECMs when stem cells differentiate into IPCs in pellet suspension culture, the present invention performs the tests by adding fibronectin and laminin in combination or separately.
The gene expressions of insulin and Glut2 in stage IV cells of the present embodiments I-IV are analyzed by real-time RT-PCR respectively, and the detected results are further normalized by the expression level of glyceraldehyde-3-phosphate dehydrogenase (GAPDH) to measure the mRNA expression levels.

human MSCs [3] = assay: Relative mRNA expression of insulin and Glut2 by RT-PCR and agarose electrophoresis, normalized by β-actin (FIG. 1); conditions: end of four-stage culture
Source text: Islet cells are aggregated cells, and the extracellular matrix (ECM) thereof includes fibronectin and laminin. The present invention provides a method for promoting MSCs to differentiate into IPCs by cell pellet suspension culture with additional fibronectin or laminin. The cells of the embodiments and the control groups at the end of the four-stage culture are harvested, and the relative mRNA expression levels of insulin and glucose transporter 2 (Glut2) thereof are detected by reverse-transcription polymerase chain reaction (RT-PCR) and agarose electrophoresis, and are normalized by the expression level of β-actin. In addition, it should be noted that all of the bar graphs shown in FIGS. 1-4 are represented by the measured mean with its standard deviation.

human MSCs [4] = assay: Dithizone (DTZ) staining for islet differentiation; conditions: pellet suspension culture with versus without fibronectin, DTZ staining (not shown)
Source text: Islet differentiation is further evaluated by dithizone (DTZ) staining to detect zinc ion, which binds six insulin molecules within the cells. Cells in the control groups I and II are not stained by DTZ; cells in the embodiment II are slightly stained by DTZ, and cells in the embodiment I are greatly stained by DTZ (not shown).

[5] = monolayer culture with 5 μg/mL fibronectin (control group I)
[6] = pellet suspension culture with 5 μg/mL fibronectin (embodiment I)

Compound | insulin release [1] | gene expression level compared with fibronectin plus laminin (human MSCs [2]) | gene expressions of insulin and Glut2 (human MSCs [2]) | insulin and Glut2 expressions compared with fibronectin only (human MSCs [2]; compared with embodiment I (fibronectin only)) | Glut2 expression (human MSCs [3]; [5]) | gene expression of insulin (human MSCs [3]; [5]) | Glut2 expression (human MSCs [3]; [6]) | gene expression of insulin (human MSCs [3]; [6]) | differentiation of MSCs into IPCs (human MSCs [4])
CC(C)Cn1c(=O)n(C)c(=O)c2[nH]cnc21 [IBMX, 3-isobutyl-1-methylxanthine] | stimulates insulin release | – | – | – | – | – | – | – | –
laminin | – | significantly higher than that of the embodiment IV | increased gene expressions of insulin and Glut2 | higher than the embodiment I | – | – | – | – | –
fibronectin | – | – | increased gene expressions of insulin and Glut2 | – | moderately detected | not detected | markedly detected | obviously detected | can further enhance the differentiation of MSCs into IPCs
